Measurements: patent publication US9125913B2, “Bcl-2-selective apoptosis-inducing agents for the treatment of cancer and immune diseases” (AbbVie Inc., priority 2008, dated 2015)
Read-outs that look alike come from different tables or passages of the source.

Key:
circulating platelets [1] = details: following injection into C57BL/6 mice; cited from earlier work
circulating platelets [2] = details: following injection in beagle canines; cited from earlier work
GST-Bcl-2 = test: TR-FRET binding assay, Bcl-2; details: TR-FRET Ki values
Summary of the method: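 Compounds serially diluted in DMSO from 50 μM (2× starting concentration, 10% DMSO), mixed with GST-tagged protein, F-Bak peptide probe and Tb-labeled antibody, incubated 3 h at room temperature.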

FL5.12/Bcl-2 cells = test: FL5.12/Bcl-2 cell viability assay; assay type: cell-based, murine; details: ratio of canine platelet EC50 to FL5.12/Bcl-2 EC50
Summary of the method: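 Cells (1×10^6/ml) are washed, resuspended in medium lacking WEHI-3B conditioned medium as IL-3 source, and held 48 hrs. Compounds are then added at a range of concentrations for 24 hrs, after which CellTitre Glo reports viability.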

SMILES | decrease in circulating platelets (circulating platelets [1]) | decrease in circulating platelets (circulating platelets [2]) | Binding selectivity ratio (Bcl-XL Ki/Bcl-2 Ki) (GST-Bcl-2) | Selectivity Ratio (Platelet EC50/FL5.12/Bcl-2 EC50) (FL5.12/Bcl-2 cells)
CN(C)CC[C@H](CSc1ccccc1)Nc1ccc(S(=O)(=O)NC(=O)c2ccc(N3CCN(Cc4ccccc4-c4ccc(Cl)cc4)CC3)cc2)cc1[N+](=O)[O-] [ABT-737, 4-(4-((4′-chloro-1,1′-biphenyl-2-yl)methyl)piperazin-1-yl)-N-((4-(((1R)-3-(dimethylamino)-1-((phenylthio)methyl)propyl)amino)-3-nitrophenyl)sulfonyl)benzamide] | rapid, concentration dependant decrease in circulating platelets | rapid, concentration dependant decrease in circulating platelets | – | –
CC1(C)CCC(CN2CCN(c3ccc(C(=O)NS(=O)(=O)c4ccc(NC5CCN(C6CCCC6)CC5)c([N+](=O)[O-])c4)c(Oc4ccc5[nH]ccc5c4)c3)CC2)=C(c2ccc(Cl)cc2)C1 [Example 26, 4-(4-{[2-(4-chlorophenyl)-4,4-dimethylcyclohex-1-en-1-yl]methyl}piperazin-1-yl)-N-({4-[(1-cyclopentylpiperidin-4-yl)amino]-3-nitrophenyl}sulfonyl)-2-(1H-indol-5-yloxy)benzamide] | – | – | >4714.3 | >1429
COc1ccc(C2=C(CN3CCN(c4ccc(C(=O)NS(=O)(=O)c5ccc(NCCCN6CCCC6)c([N+](=O)[O-])c5)c(Oc5cccc6[nH]ccc56)c4)CC3)CCC(C)(C)C2)cc1 [Example 68, 2-(1H-indol-4-yloxy)-4-(4-{[2-(4-methoxyphenyl)-4,4-dimethylcyclohex-1-en-1-yl]methyl}piperazin-1-yl)-N-({3-nitro-4-[(3-pyrrolidin-1-ylpropyl)amino]phenyl}sulfonyl)benzamide] | – | – | 11.4 | >1144
O=C(NS(=O)(=O)c1ccc(NCC2CCOCC2)c([N+](=O)[O-])c1)c1ccc(N2CCN(Cc3cc(OCCN4CCOCC4)ccc3-c3ccc(Cl)cc3)CC2)cc1Oc1cccc2[nH]ccc12 [Example 130, 4-(4-{[4′-chloro-4-(2-morpholin-4-ylethoxy)-1,1′-biphenyl-2-yl]methyl}piperazin-1-yl)-2-(1H-indol-4-yloxy)-N-({3-nitro-4-[(tetrahydro-2H-pyran-4-ylmethyl)amino]phenyl}sulfonyl)benzamide] | – | – | >4714.3 | >254
CN(C)CCOc1ccc(-c2ccc(Cl)cc2)c(CN2CCN(c3ccc(C(=O)NS(=O)(=O)c4ccc(NCC5CCOCC5)c([N+](=O)[O-])c4)c(Oc4cccc5[nH]ccc45)c3)CC2)c1 [Example 125, 4-[4-({4′-chloro-4-[2-(dimethylamino)ethoxy]-1,1′-biphenyl-2-yl}methyl)piperazin-1-yl]-2-(1H-indol-4-yloxy)-N-({3-nitro-4-[(tetrahydro-2H-pyran-4-ylmethyl)amino]phenyl}sulfonyl)benzamide] | – | – | 3879 | 4719
CN1CCC(CNc2ccc(S(=O)(=O)NC(=O)c3ccc(N4CCN(Cc5ccccc5-c5ccc(Cl)cc5)CC4)cc3Oc3ccccc3)cc2[N+](=O)[O-])CC1 [Example 88, 4-{4-[(4′-chloro-1,1′-biphenyl-2-yl)methyl]piperazin-1-yl}-N-[(4-{[(1-methylpiperidin-4-yl)methyl]amino}-3-nitrophenyl)sulfonyl]-2-phenoxybenzamide] | – | – | 67.3 | 613
